Assay results: ChEMBL document CHEMBL1201862, “PubChem BioAssay data set” (2004)
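Five concentrations, 48 hours, 96-well plates. The concentration for 50% growth inhibition is given as GI50.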 Active and inactive are the calls of the source. No stated cut-off is given here; in the data, active = GI50 up to about 1.1 µM and inactive = higher.

Experiments:
Test in all cases: DTP human tumour cell line panel, 48 h
786-0 = test system: 786-0
A498 = test system: A498
A549 = test system: A549
ACHN = test system: ACHN
BT-549 = test system: BT-549
CAKI-1 = test system: CAKI-1
CCRF-CEM = test system: CCRF-CEM
COLO 205 = test system: COLO 205
DU-145 = test system: DU-145
EKVX = test system: EKVX
HCC 2998 = test system: HCC 2998
HCT-116 = test system: HCT-116
HCT-15 = test system: HCT-15
HOP-62 = test system: HOP-62
HOP-92 = test system: HOP-92
HT-29 = test system: HT-29
IGROV-1 = test system: IGROV-1
K562 = test system: K562
KM12 = test system: KM12
LOX IMVI = test system: LOX IMVI
M14 = test system: M14
MCF7 = test system: MCF7
MDA-MB-231 = test system: MDA-MB-231
MDA-MB-435 = test system: MDA-MB-435
MOLT-4 = test system: MOLT-4
Malme-3M = test system: Malme-3M
NCI-H226 = test system: NCI-H226
NCI-H23 = test system: NCI-H23
NCI-H460 = test system: NCI-H460
NCI-H522 = test system: NCI-H522
NCI/ADR-RES = test system: NCI/ADR-RES
OVCAR-3 = test system: OVCAR-3
OVCAR-4 = test system: OVCAR-4
OVCAR-5 = test system: OVCAR-5
OVCAR-8 = test system: OVCAR-8
PC-3 = test system: PC-3
RXF 393 = test system: RXF 393
SF-268 = test system: SF-268
SF-295 = test system: SF-295
SF-539 = test system: SF-539
SK-MEL-28 = test system: SK-MEL-28
SK-MEL-2 = test system: SK-MEL-2
SK-MEL-5 = test system: SK-MEL-5
SK-OV-3 = test system: SK-OV-3
SN12C = test system: SN12C
SNB-19 = test system: SNB-19
SNB-75 = test system: SNB-75
SR = test system: SR
SW-620 = test system: SW-620
T47D = test system: T47D
TK-10 = test system: TK-10
U-251 = test system: U-251
UACC-257 = test system: UACC-257
UACC-62 = test system: UACC-62
UO-31 = test system: UO-31
Hs-578T = test system: Hs-578T
RPMI-8226 = test system: RPMI-8226
HL-60 = test system: HL-60

Cc1c(O)c(OC2OC(CO)C(O)C(O)C2O)cc2c1CC[C@@H]1C2(C)C(=O)C[C@]2(C)[C@@H]([C@@](C)(O)C3CCC(C)(C)O3)[C@H](O)C[C@@]12C (stereo not given in full)
GI50 (786-0): > 100 µM (inactive)
GI50 (A498): > 100 µM (inactive)
GI50 (A549): > 100 µM (inactive)
GI50 (ACHN): > 100 µM (inactive)
GI50 (BT-549): > 100 µM (inactive)
GI50 (CAKI-1): > 100 µM (inactive)
GI50 (CCRF-CEM): > 100 µM (inactive)
GI50 (COLO 205): > 100 µM (inactive)
GI50 (DU-145): > 100 µM (inactive)
GI50 (EKVX): > 100 µM (inactive)
GI50 (HCC 2998): > 100 µM (inactive)
GI50 (HCT-116): > 100 µM (inactive)
GI50 (HCT-15): > 100 µM
GI50 (HOP-62): > 100 µM (inactive)
GI50 (HOP-92): > 100 µM (inactive)
GI50 (HT-29): > 100 µM (inactive)
GI50 (IGROV-1): > 100 µM (inactive)
GI50 (K562): > 100 µM (inactive)
GI50 (KM12): > 100 µM (inactive)
GI50 (LOX IMVI): > 100 µM (inactive)
GI50 (M14): > 100 µM (inactive)
GI50 (MCF7): > 100 µM (inactive)
GI50 (MDA-MB-231): > 100 µM (inactive)
GI50 (MDA-MB-435): > 100 µM (inactive)
GI50 (MOLT-4): > 100 µM (inactive)
GI50 (Malme-3M): > 100 µM (inactive)
GI50 (NCI-H226): > 100 µM (inactive)
GI50 (NCI-H23): > 100 µM (inactive)
GI50 (NCI-H460): > 100 µM (inactive)
GI50 (NCI-H522): > 100 µM (inactive)
GI50 (NCI/ADR-RES): > 100 µM (inactive)
GI50 (OVCAR-3): > 100 µM (inactive)
GI50 (OVCAR-4): > 100 µM (inactive)
GI50 (OVCAR-5): > 100 µM (inactive)
GI50 (OVCAR-8): > 100 µM (inactive)
GI50 (PC-3): > 100 µM (inactive)
GI50 (RXF 393): > 100 µM (inactive)
GI50 (SF-268): > 100 µM (inactive)
GI50 (SF-295): > 100 µM (inactive)
GI50 (SF-539): > 100 µM (inactive)
GI50 (SK-MEL-28): > 100 µM (inactive)
GI50 (SK-MEL-2): > 100 µM (inactive)
GI50 (SK-MEL-5): > 100 µM (inactive)
GI50 (SK-OV-3): > 100 µM (inactive)
GI50 (SN12C): > 100 µM (inactive)
GI50 (SNB-19): > 100 µM (inactive)
GI50 (SNB-75): > 100 µM (inactive)
GI50 (SR): > 100 µM (inactive)
GI50 (SW-620): > 100 µM (inactive)
GI50 (T47D): > 100 µM (inactive)
GI50 (TK-10): > 100 µM (inactive)
GI50 (U-251): > 100 µM (inactive)
GI50 (UACC-257): > 100 µM (inactive)
GI50 (UACC-62): > 100 µM (inactive)
GI50 (UO-31): > 100 µM (inactive)

O=C1OC2(c3ccccc31)c1cc(I)c(O)c(I)c1Oc1c2cc(I)c(O)c1I [ERYTHROSINE]
GI50 (786-0): > 100 µM (inactive)
GI50 (A549): > 100 µM (inactive)
GI50 (ACHN): 96.8 µM (inactive)
GI50 (BT-549): 45.8 µM (inactive)
GI50 (CAKI-1): 14.6 µM (inactive)
GI50 (CCRF-CEM): > 100 µM (inactive)
GI50 (COLO 205): > 100 µM (inactive)
GI50 (DU-145): > 100 µM (inactive)
GI50 (EKVX): > 100 µM (inactive)
GI50 (HCT-116): 72.4 µM (inactive)
GI50 (HCT-15): 31.3 µM
GI50 (HOP-62): > 100 µM (inactive)
GI50 (HOP-92): > 100 µM (inactive)
GI50 (HT-29): > 100 µM (inactive)
GI50 (Hs-578T): 49.1 µM (inactive)
GI50 (IGROV-1): > 100 µM (inactive)
GI50 (K562): > 100 µM (inactive)
GI50 (KM12): 10.4 µM (inactive)
GI50 (LOX IMVI): 76.6 µM (inactive)
GI50 (M14): 68.2 µM (inactive)
GI50 (MCF7): > 100 µM (inactive)
GI50 (MDA-MB-231): > 100 µM (inactive)
GI50 (MDA-MB-435): > 100 µM (inactive)
GI50 (MOLT-4): > 100 µM (inactive)
GI50 (Malme-3M): 64.1 µM (inactive)
GI50 (NCI-H226): 37.4 µM (inactive)
GI50 (NCI-H23): 70 µM (inactive)
GI50 (NCI-H460): > 100 µM (inactive)
GI50 (NCI-H522): 19.3 µM (inactive)
GI50 (NCI/ADR-RES): > 100 µM (inactive)
GI50 (OVCAR-3): 5.46 µM (inactive)
GI50 (OVCAR-4): > 100 µM (inactive)
GI50 (OVCAR-5): > 100 µM (inactive)
GI50 (OVCAR-8): > 100 µM (inactive)
GI50 (PC-3): > 100 µM (inactive)
GI50 (RPMI-8226): > 100 µM (inactive)
GI50 (RXF 393): 5.79 µM (inactive)
GI50 (SF-268): > 100 µM (inactive)
GI50 (SF-295): > 100 µM (inactive)
GI50 (SF-539): > 100 µM (inactive)
GI50 (SK-MEL-28): > 100 µM (inactive)
GI50 (SK-MEL-2): > 100 µM (inactive)
GI50 (SK-MEL-5): > 100 µM (inactive)
GI50 (SK-OV-3): > 100 µM (inactive)
GI50 (SN12C): > 100 µM (inactive)
GI50 (SNB-19): > 100 µM (inactive)
GI50 (SNB-75): > 100 µM (inactive)
GI50 (SR): > 100 µM (inactive)
GI50 (SW-620): > 100 µM (inactive)
GI50 (T47D): > 100 µM (inactive)
GI50 (TK-10): > 100 µM (inactive)
GI50 (U-251): 92.3 µM (inactive)
GI50 (UACC-257): > 100 µM (inactive)
GI50 (UACC-62): 75.9 µM (inactive)
GI50 (UO-31): > 100 µM (inactive)

Cc1ccc(C(=O)CC(Cl)=C(Cl)Cl)cc1
GI50 (786-0): 63.1 µM (inactive)
GI50 (A498): > 100 µM (inactive)
GI50 (A549): > 100 µM (inactive)
GI50 (ACHN): > 100 µM (inactive)
GI50 (BT-549): > 100 µM (inactive)
GI50 (CAKI-1): 38.8 µM (inactive)
GI50 (CCRF-CEM): 25.8 µM (inactive)
GI50 (COLO 205): > 100 µM (inactive)
GI50 (DU-145): > 100 µM (inactive)
GI50 (HCT-116): 61.9 µM (inactive)
GI50 (HCT-15): 67.1 µM
GI50 (HL-60): 54 µM (inactive)
GI50 (HOP-62): > 100 µM (inactive)
GI50 (HOP-92): > 100 µM (inactive)
GI50 (HT-29): > 100 µM (inactive)
GI50 (Hs-578T): > 100 µM (inactive)
GI50 (IGROV-1): > 100 µM (inactive)
GI50 (K562): 41.6 µM (inactive)
GI50 (KM12): > 100 µM (inactive)
GI50 (LOX IMVI): 31.7 µM (inactive)
GI50 (M14): > 100 µM (inactive)
GI50 (MCF7): > 100 µM (inactive)
GI50 (MDA-MB-231): 98.2 µM (inactive)
GI50 (MDA-MB-435): 55.7 µM (inactive)
GI50 (MOLT-4): 20.5 µM (inactive)
GI50 (Malme-3M): > 100 µM (inactive)
GI50 (NCI-H226): 85.5 µM (inactive)
GI50 (NCI-H23): > 100 µM (inactive)
GI50 (NCI-H460): > 100 µM (inactive)
GI50 (NCI-H522): 49.3 µM (inactive)
GI50 (NCI/ADR-RES): > 100 µM (inactive)
GI50 (OVCAR-3): 45.6 µM (inactive)
GI50 (OVCAR-4): 63.2 µM (inactive)
GI50 (OVCAR-5): > 100 µM (inactive)
GI50 (OVCAR-8): > 100 µM (inactive)
GI50 (PC-3): > 100 µM (inactive)
GI50 (RPMI-8226): 29.2 µM (inactive)
GI50 (RXF 393): 78.5 µM (inactive)
GI50 (SF-268): > 100 µM (inactive)
GI50 (SF-295): 25.6 µM (inactive)
GI50 (SF-539): > 100 µM (inactive)
GI50 (SK-MEL-28): > 100 µM (inactive)
GI50 (SK-MEL-2): > 100 µM (inactive)
GI50 (SK-MEL-5): > 100 µM (inactive)
GI50 (SK-OV-3): > 100 µM (inactive)
GI50 (SNB-19): > 100 µM (inactive)
GI50 (SNB-75): > 100 µM (inactive)
GI50 (SR): 25.7 µM (inactive)
GI50 (SW-620): > 100 µM (inactive)
GI50 (T47D): 50.6 µM (inactive)
GI50 (TK-10): > 100 µM (inactive)
GI50 (U-251): > 100 µM (inactive)
GI50 (UACC-257): 65.9 µM (inactive)
GI50 (UACC-62): > 100 µM (inactive)
GI50 (UO-31): > 100 µM (inactive)
